In assay [1] the test system is Aurora B. The conditions noted are these: cited from earlier work; for IC50: read-out: Aurora B IC50 (Published).
In assay [2] the test system is pH3(Ser 28) in U2OS cells. As to the kind of experiment: Substrate phosphorylation immunofluorescence assay, pH3(Ser 28), U2OS. In kind it is cell-based, human.
Experimental: Asynchronous cells were incubated with vehicle (DMSO) or different inhibitor doses for 8 h and then fixed and labeled with a mixture of three antibodies directed against pLATS2(Ser 83), pH3(Ser 28), and MPM2 [which detects mitotic phosphoepitopes; ([86])]. While both the anti-pLATS2(Ser 83) and MPM2 antibodies are mouse monoclonals, they are of different IgG subclasses [IgG2b for anti-pLATS2(Ser 83) and IgG1 for MPM2], and can thus be detected with subclass-specific secondary antibodies (Table S3 in Supplementary Material).
Cells were imaged in 4 channels to visualize pLATS2(Ser 83), pH3(Ser 28), MPM2, and DNA (labeled with Hoechst) and mitotic cells were segmented based on their bright MPM2 labeling (Figure 3E). Intensity and area thresholds were set to select the pLATS2(Ser 83) foci and the pH3(Ser 28)-labeled chromatin in their respective channels in DMSO-treated control cells and the same thresholds were applied for inhibitor-treated cells. The mean fluorescence intensity per pixel was measured to assess the activities of the kinases targeting these two substrate phosphorylation sites.
After 8 h cells were fixed with 4% PFA for 20 min at room temperature. The fixed cells were washed with PBS. For immunostaining, cells were permeabilized and blocked with PBS containing 10% normal donkey serum (Jackson ImmunoResearch) and 0.1% Triton-X100 for 1 h at room temperature. Primary antibodies against phospho-LATS2 (Ser 83), phospho-histone H3(Ser 28), and anti-phospho-MPM2 (see Table S3 in Supplementary Material) were incubated for 1 h at room temperature. […] Cells were then washed twice with PBS containing 0.1% Triton-X100. […] Fifty fields per well were imaged with quadruplicate wells for each condition. Image analysis was done using the CV7000 image analysis software (Yokogawa Electric Corporation). Between 100 and 1,000 mitotic cells per condition were segmented applying object identification parameters to select for bright MPM2 labeling. Using a nuclear identifier protocol, minimum intensity thresholds were set for pLATS2(Ser 83) and the pH3(Ser 28) signals, and the resulting identified objects were eroded, dilated, and filtered for size by user-defined thresholds. […] The same thresholds were applied for all of the inhibitor-treated samples, which were processed, imaged, and analyzed in parallel with control DMSO-treated cells. Data were fit using a four-parameter, variable slope fit in Prism (GraphPad).
Assay [3] addresses 363 human kinases (including Aurora A/B/C) (Homo sapiens, UniProt Q04759). Briefly: biochemical. The assay is classed as biochemical. The settings on record: PKCtheta; for remaining activity at 0.5 µM / remaining activity at 0.1 µM: read-out: % Enzyme Activity (relative to DMSO controls); for remaining activity at 0.1 µM: 100 nM.
Text: (§1) However, the Aurora A/B selectivity ratios derived from our in vitro and in vivo data can be compared to prioritize inhibitors.
In assay [4] the target is 363 human kinases (including Aurora A/B/C) (Homo sapiens, UniProt Q96GD4). Briefly: biochemical. In kind it is biochemical. The conditions noted are these: for remaining activity at 0.5 µM / remaining activity at 0.1 µM: read-out: % Enzyme Activity (relative to DMSO controls).
Text: as §1
Assay [5] concerns the target 363 human kinases (including Aurora A/B/C) (Homo sapiens, UniProt Q15208). As to the kind of experiment: biochemical. The assay is classed as biochemical. The conditions noted are these: STK38/NDR1; for remaining activity at 0.5 µM / remaining activity at 0.1 µM: read-out: % Enzyme Activity (relative to DMSO controls); for remaining activity at 0.1 µM: 100 nM.
Text: as §1
Assay [6] concerns the target 363 human kinases (including Aurora A/B/C) (Homo sapiens, UniProt O94921). As to the kind of experiment: biochemical. The settings on record: CDK14/cyclin Y (PFTK1), [ATP] 10 µM; for remaining activity at 0.5 µM / remaining activity at 0.1 µM: read-out: % Enzyme Activity (relative to DMSO controls); for remaining activity at 0.1 µM: 100 nM. In kind it is biochemical.
Text: as §1
The target of assay [7] is T1, 363 human kinases (including Aurora A/B/C) (Homo sapiens, UniProt O43781).
T1 sequence (O43781 1-588): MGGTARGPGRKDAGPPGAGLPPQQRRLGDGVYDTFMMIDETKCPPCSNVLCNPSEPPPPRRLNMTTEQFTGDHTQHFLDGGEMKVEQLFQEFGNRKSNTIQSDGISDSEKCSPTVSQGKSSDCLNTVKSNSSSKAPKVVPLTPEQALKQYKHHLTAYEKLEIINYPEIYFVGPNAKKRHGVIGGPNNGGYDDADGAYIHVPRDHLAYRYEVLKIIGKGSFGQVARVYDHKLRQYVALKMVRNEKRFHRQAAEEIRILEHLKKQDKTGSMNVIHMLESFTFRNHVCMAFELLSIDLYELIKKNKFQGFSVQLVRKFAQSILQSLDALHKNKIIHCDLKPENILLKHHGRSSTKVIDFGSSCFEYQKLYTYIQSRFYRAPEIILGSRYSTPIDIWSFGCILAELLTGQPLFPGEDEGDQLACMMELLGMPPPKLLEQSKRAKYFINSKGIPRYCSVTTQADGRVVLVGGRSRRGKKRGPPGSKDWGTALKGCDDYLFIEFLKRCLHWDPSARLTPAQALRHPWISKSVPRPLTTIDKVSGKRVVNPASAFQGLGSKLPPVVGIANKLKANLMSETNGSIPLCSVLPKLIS
As to the kind of experiment: biochemical. The conditions noted are these: DYRK3, [ATP] 5 µM; for remaining activity at 0.5 µM / remaining activity at 0.1 µM: read-out: % Enzyme Activity (relative to DMSO controls); for remaining activity at 0.1 µM: 100 nM. In kind it is biochemical.
Text: as §1

In assay [8] the target is T2, 363 human kinases (including Aurora A/B/C) (Homo sapiens, UniProt P54762).
T2 sequence (P54762 18-984): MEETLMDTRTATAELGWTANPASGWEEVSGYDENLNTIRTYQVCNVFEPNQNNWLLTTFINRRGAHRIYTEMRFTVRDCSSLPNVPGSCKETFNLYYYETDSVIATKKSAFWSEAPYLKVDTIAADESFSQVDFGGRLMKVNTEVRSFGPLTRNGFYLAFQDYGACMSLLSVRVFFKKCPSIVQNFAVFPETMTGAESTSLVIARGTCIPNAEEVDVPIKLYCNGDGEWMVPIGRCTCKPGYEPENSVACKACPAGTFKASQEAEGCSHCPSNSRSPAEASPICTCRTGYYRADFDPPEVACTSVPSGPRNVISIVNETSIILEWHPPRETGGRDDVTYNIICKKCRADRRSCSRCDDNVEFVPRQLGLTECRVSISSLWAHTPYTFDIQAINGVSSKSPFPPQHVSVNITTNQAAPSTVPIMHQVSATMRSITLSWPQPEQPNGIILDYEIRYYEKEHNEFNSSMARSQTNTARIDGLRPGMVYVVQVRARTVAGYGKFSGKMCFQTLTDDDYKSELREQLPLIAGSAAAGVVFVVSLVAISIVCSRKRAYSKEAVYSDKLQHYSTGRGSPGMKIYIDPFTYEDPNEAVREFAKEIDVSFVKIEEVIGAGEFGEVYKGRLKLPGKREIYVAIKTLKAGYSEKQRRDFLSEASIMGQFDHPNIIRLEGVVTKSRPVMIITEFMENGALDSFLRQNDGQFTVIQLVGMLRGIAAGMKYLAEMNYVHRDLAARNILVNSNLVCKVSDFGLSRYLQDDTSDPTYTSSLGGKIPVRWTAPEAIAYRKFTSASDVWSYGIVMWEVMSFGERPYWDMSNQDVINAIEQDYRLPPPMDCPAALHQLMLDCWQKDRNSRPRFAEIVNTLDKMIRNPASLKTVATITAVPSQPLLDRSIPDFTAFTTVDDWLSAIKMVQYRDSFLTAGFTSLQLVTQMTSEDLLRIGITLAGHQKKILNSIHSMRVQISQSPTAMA
Briefly: biochemical. In kind it is biochemical. The conditions noted are these: EPHB1, [ATP] 100 µM; for remaining activity at 0.5 µM / remaining activity at 0.1 µM: read-out: % Enzyme Activity (relative to DMSO controls); for remaining activity at 0.1 µM: 100 nM.
Text: as §1

The target of assay [9] is 363 human kinases (including Aurora A/B/C) (Homo sapiens, UniProt P06241). Briefly: biochemical. In kind it is biochemical. The conditions noted are these: FYN; for remaining activity at 0.5 µM / remaining activity at 0.1 µM: read-out: % Enzyme Activity (relative to DMSO controls); for remaining activity at 0.1 µM: 100 nM.
Text: as §1

The structures appear in SMILES notation. Read-outs that look alike come from different tables or passages of the source.

Sequence of 363 human kinases (including Aurora A/B/C) (Homo sapiens, UniProt Q15208) (Q15208 whole entry): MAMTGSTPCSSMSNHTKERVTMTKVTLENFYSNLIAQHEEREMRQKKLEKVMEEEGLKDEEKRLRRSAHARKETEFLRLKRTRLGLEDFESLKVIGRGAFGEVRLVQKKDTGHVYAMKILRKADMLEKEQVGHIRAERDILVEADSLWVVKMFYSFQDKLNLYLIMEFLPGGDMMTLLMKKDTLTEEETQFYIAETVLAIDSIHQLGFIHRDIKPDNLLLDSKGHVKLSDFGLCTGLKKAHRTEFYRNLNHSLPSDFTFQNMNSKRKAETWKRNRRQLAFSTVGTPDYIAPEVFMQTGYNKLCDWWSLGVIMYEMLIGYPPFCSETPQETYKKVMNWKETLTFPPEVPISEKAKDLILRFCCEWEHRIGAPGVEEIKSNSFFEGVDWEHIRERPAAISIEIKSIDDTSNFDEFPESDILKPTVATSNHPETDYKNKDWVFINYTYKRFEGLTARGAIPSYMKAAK
Sequence of 363 human kinases (including Aurora A/B/C) (Homo sapiens, UniProt O94921) (O94921 whole entry): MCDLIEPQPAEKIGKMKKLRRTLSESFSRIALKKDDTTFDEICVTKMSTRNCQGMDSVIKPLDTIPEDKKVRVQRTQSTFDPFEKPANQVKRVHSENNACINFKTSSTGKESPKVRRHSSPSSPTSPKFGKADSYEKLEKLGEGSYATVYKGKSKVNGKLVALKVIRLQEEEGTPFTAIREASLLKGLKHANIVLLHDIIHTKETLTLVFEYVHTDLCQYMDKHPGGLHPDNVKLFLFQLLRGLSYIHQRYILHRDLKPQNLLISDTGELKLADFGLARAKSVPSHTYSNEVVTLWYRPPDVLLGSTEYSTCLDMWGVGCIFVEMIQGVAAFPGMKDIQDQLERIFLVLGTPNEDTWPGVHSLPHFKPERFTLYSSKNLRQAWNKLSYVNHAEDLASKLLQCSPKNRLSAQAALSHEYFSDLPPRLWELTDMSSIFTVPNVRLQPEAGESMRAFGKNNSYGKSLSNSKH
Sequence of 363 human kinases (including Aurora A/B/C) (Homo sapiens, UniProt P06241) (P06241 whole entry): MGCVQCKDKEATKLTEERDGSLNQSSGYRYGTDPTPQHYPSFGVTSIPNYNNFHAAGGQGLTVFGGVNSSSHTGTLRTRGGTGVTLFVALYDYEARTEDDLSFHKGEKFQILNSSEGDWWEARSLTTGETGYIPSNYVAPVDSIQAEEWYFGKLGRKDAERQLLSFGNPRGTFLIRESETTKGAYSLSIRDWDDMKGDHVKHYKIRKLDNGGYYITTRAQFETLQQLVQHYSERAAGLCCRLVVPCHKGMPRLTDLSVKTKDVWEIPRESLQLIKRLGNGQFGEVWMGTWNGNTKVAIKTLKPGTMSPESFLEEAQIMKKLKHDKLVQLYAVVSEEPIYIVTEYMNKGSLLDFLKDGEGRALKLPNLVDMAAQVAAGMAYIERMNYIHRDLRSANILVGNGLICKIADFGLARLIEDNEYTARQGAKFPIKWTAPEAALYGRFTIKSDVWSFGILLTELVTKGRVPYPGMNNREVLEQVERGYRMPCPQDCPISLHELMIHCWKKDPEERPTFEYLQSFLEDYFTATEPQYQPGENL
Sequence of 363 human kinases (including Aurora A/B/C) (Homo sapiens, UniProt Q04759) (Q04759 whole entry): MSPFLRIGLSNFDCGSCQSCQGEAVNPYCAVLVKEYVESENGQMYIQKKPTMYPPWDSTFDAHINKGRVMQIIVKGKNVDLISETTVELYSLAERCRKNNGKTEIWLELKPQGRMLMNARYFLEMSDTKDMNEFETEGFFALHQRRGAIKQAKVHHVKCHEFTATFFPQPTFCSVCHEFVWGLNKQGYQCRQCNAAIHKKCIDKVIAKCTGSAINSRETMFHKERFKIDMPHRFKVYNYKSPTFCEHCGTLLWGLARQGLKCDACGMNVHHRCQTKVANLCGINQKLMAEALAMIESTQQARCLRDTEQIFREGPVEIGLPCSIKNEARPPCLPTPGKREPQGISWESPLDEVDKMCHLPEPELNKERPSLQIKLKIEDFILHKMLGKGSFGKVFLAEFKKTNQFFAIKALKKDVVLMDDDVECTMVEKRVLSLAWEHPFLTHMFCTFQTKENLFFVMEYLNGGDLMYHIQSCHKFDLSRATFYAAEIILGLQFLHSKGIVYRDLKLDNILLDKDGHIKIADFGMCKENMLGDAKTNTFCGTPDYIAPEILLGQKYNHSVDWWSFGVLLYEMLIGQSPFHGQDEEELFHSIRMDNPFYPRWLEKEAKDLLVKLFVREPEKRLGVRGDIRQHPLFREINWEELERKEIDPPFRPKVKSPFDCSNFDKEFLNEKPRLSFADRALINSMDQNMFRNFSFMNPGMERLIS
Sequence of 363 human kinases (including Aurora A/B/C) (Homo sapiens, UniProt Q96GD4) (Q96GD4 whole entry): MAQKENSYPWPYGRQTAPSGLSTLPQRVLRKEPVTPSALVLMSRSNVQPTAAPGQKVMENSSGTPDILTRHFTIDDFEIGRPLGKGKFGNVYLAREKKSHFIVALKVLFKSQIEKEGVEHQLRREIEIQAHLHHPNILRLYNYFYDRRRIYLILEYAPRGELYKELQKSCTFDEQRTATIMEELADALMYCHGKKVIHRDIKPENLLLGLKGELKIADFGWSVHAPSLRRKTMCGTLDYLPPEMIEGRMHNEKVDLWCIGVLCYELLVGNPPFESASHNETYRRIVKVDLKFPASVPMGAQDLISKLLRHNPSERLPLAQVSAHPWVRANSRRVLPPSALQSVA

As a reminder, the IC50 is the midpoint of a concentration-inhibition curve. `O=C(c1cccc(Cl)c1F)N1CCN(Cc2cccc(Nc3nccs3)n2)CC1` [MK-8745]: the 50% inhibitory concentration (IC50) in assay [1] (ref 57) is 280 nM. Also, in assay [2] (8 h inhibitor treatment), the “pHistone H3 (Ser28) IC50” value was “NE@15 µM”. Moreover, the “% Enzyme Activity (relative to DMSO controls)” value in [3] (500 nM) amounted to 152.58%; in [4] (Aurora B, [ATP] 100 µM, 500 nM) it was 59.14%; in [5] (500 nM) it was 90.44%; in assay [6] (500 nM) it was 102.17%; in [7] (500 nM) it was 92.33%; in [8] (500 nM) it was 65.66%. For the same compound, the “% Enzyme Activity (relative to DMSO controls)” value in assay [9] (500 nM) is 57.68%. Besides, the remaining activity at 0.5 µM in [3] (500 nM) stood at 157%; in assay [4] (Aurora B, [ATP] 100 µM, 500 nM), 62.3%; in [5] (500 nM), 91.2%; in assay [6] (500 nM), 104%; in assay [7] (500 nM), 92.3%; in [8] (500 nM) it was 65.9%. In addition, in assay [9] (500 nM), the remaining activity at 0.5 µM turned out to be 57.8%.
In general, Ki refers to a measure of affinity in units of concentration, obtained from inhibition or displacement. With `CCn1cc(-c2ccnc3[nH]c(-c4cccc(CN(C)C)c4)cc23)c(-c2ccc(NC(=O)N(C)C)cc2)n1` [GSK1070916], the Ki in [1] (ref 61, read-out: Aurora B-INCENP Ki (Published)) is 0.38 nM. In addition, the IC50 in assay [2] (Homo sapiens, 8 h, read-out: pHistone H3 (Ser28) IC50) is 8 nM. Moreover, the remaining activity at 0.1 µM turned out to be 92.7% in assay [3]; 12.8% in [4]; 88% in assay [5]; 108% in [6]; 96% in assay [7]; 89.2% in [8]. In addition, in assay [9], the remaining activity at 0.1 µM stood at 84.3%.
For the compound `O=C(O)[C@]1(Cc2cccc(Nc3nccs3)n2)CC[C@@H](Oc2cccc(Cl)c2F)CC1` [MK-5108], the 50% inhibitory concentration (IC50) in [1] (ref 56) is 14.1 nM. The inhibition at 15 µM in assay [2] (Homo sapiens, read-out: pHistone H3 (Ser28) inhibition at highest concentration tested) is 20%. The remaining activity at 0.1 µM in [3] amounted to 91.8%; in assay [4], 9.6%; in [5], 96%; in assay [6], 102%; in assay [7], 87.2%; in [8] it was 42.4%. Further, the remaining activity at 0.1 µM in [9] is 43.9%. The remaining activity at 0.5 µM amounted to 104% in assay [3] (500 nM); 2.85% in assay [4]; 86.5% in assay [5] (500 nM); 103% in assay [6] (500 nM); 92.2% in assay [7] (500 nM); 13.9% in assay [8] (500 nM). The remaining activity at 0.5 µM in [9] (500 nM) amounted to 18%.

The values above are taken from article PMC4685510, “A Cell Biologist’s Field Guide to Aurora Kinase Inhibitors” (Frontiers in Oncology, 2015).
